Results published in EP1279727A1, “TRANSFORMATION AND MODIFICATION OF NATURAL DRUG BY INTESTINAL PROBIOTIC FERMENTATIVE CULTURE” (Wu, Bingxin, priority 2000, dated 2002).
Where two headings read alike, the source gives them in different places.

Legend:
H22 hepatocarcinoma [1] = assay type: in vivo; conditions: H22 mouse, single therapy (subgroup 2 preparation alone; subgroup 3 5-Fu 15 mg/kg alone), 7 days
Protocol: 1. […] The resultant model mouse is grouped randomly into eight groups.
Each mouse in first four groups is treated for observing effect of the present natural medicine preparation on the efficiency of anti-cancer chemical agent, fliorouracil (5-Fu, 15 mg/kg), mice in the rest four groups is for the effect of the present compositions on the efficiency of radiotherapy for cancer (^60Co irradiation on whole body, 4.5 Gray /day/animal).
The combination therapy to both animal groups (4 subgroups in each group) starts from the next day of grafting tumor cells and continues for 7 days.
The synergetic effect of the present composition on chemical therapy or radiotherapy for cancer is calculated by the inhibition rate according to the following Burgi's correction equation: Q= E (A+B)/EA+EB-EAxEB [formula] wherein, E (A+B) is the cancer inhibition rate of the combined therapy, EA and EB are the cancer inhibition rate of the present composition administration, or the chemical therapy (or radiotherapy) alone.
Result: (1) If Q calculated is lower than 0.85, it is considered as an antergenic effect between combined therapy; (2) if Q is between 0.85 and 1.15, it is considered as an addictive effect; and (3) if Q is above 1.15, then it is deemed as synergetic effect between combined therapy. The particular results are listed in table 3 and table 4, respectively.

S180 sacoma = conditions: S180 mouse, positive control CTX subcutaneously
Protocol: (§1) Using species Kunming mouse subcutaneously grafted S180 sacoma or H22 hepatocarcinoma as cancer-harboring model animal, the inhibition activity on growth of cancer is observed with respect to extract of anti-cancer natural medicines which converted or unconverted by the above intestinal probiotics in either large dose or small dose.
(§2) For this purpose, 120 mice weighed from about 18-25g are grafted subcutaneously at right axilla with 1 x 10^7 cells/ml of S180 sacoma or H22 hepatocarcinoma (0.2ml/mouse) in order to obtain solid tumor model animal. The resultant model animal is grouped randomly into 12 groups. Each animal in treatment group is orally administrated with unfermented (in 1:1 dilution) or fermented (in 1:4 dilution) extract of natural medicines daily.
(§3) The administration of extract of natural medicine starts at the forth day from the date grafting cancer cells, i.e., the time when solid tumor can be touched by hand. After continuously administration over 10 days, the weight of animal and solid tumor are measured, respectively, and then inhibition rate of cancer can be calculated accordingly. The treatment experiments on the two types of cancer are carried out in triplicate.

H22 hepatocarcinoma [2] = conditions: H22 mouse, positive control CTX subcutaneously
Protocol: as §1, §2, §3

Row | SMILES | inhibition rate (H22 hepatocarcinoma [1]) [%] | tumor weight (X±SD) (H22 hepatocarcinoma [1]) | animal weight before ad. (S180 sacoma) | animal weight after ad. (S180 sacoma; after 10 days) | inhibition rate (S180 sacoma; after 10 days) [%] | solid tumor weight (X±SD) (S180 sacoma; after 10 days) | animal weight before ad. (H22 hepatocarcinoma [2]) | animal weight after ad. (H22 hepatocarcinoma [2]; after 10 days) | inhibition rate (H22 hepatocarcinoma [2]; after 10 days) [%] | solid tumor weight (X±SD) (H22 hepatocarcinoma [2]; after 10 days)
1 | O=c1[nH]cc(F)c(=O)[nH]1 [5-Fu, fliorouracil] | 56.7 | 1.06±0.31 |  |  |  |  |  |  |  | 
2 | O=P1(N(CCCl)CCCl)NCCCO1 (stereo not shown) [positive control, cyclophosphamide] |  |  | 20.1 | 21.2 | 61.0 | 0.55±0.19 | 21.2 | 27.9 | 62.4 | 0.72±0.36
